Like-named read-outs stand apart in the source and are kept apart here.
Key:
[1] = Stability of IPA in rat plasma QC samples under storage conditions; type: in vitro ADME; conditions: for stability in rat plasma (in words): three QC concentrations; for Postpreparative, Measured: processed plasma sample; for Postpreparative, Measured / Long-term, Measured / Short-term, Measured / Three freeze-thaw, Measured: n = 5; for Long-term, Measured / Short-term, Measured / Three freeze-thaw, Measured: rat plasma
Method: IPA stability was examined by evaluating five replicate samples at the three QC concentration levels in a range of storage conditions. […] Processed sample stability was measured by incubating them for 24 h in the room temperature autosampler. In addition, long-term stability was measured following a 30-day storage period at -20°C, and freeze-thaw stability was measured by cycling samples from -20°C to 20°C three times. When the assay values associated with these samples were within a ±15% deviation from the nominal value, samples were considered to be stable.

[2] = Pharmacokinetic study of IPA in rats after i.v. or oral administration (LC-MS/MS of plasma, noncompartmental analysis); type: in vivo, Sprague-Dawley rats; conditions: for AUC(0-inf) / MRT / half-life / AUC(0-t) / bioavailability / CL/F / Tmax / T max1: rat; for AUC(0-t): read-out: AUC(0~24); for bioavailability: oral, read-out: absolute bioavailability; for Tmax: read-out: T max 2; for C max1 / C max2: rat plasma; for C max1: n = 5
Method: Male Sprague-Dawley rats (220-250 g) from Shanghai Slac Laboratory Animal Co., Ltd. (Shanghai, China) (2018(hu)-08-0013) were housed in a climate-controlled facility (22 ± 2°C, 46 ± 20% relative humidity, 12 h light/dark cycle) with unlimited food and water access. After a 7-day acclimatization period, 20 rats were randomly assigned to undergo the administration of IPA via p.o. administration (50, 100, or 200 mg/kg) or via i.v. injection (5 mg/kg) for pharmacokinetic analyses. All animal studies received approval from the Animal Ethics Committee of the Naval Military Medical University. After developing and validating the above LC-MS/MS approach, it was employed to assess the pharmacokinetics of IPA following its intravenous or oral administration to rats as per the approved protocols discussed above. Briefly, after acclimatization, rats were fasted for 12 h and then randomized to undergo treatment with a 5 mg/kg i.v. dose of IPA or with oral IPA doses of 50, 100, or 200 mg/kg (n = 5/group). All IPA solutions were prepared in physiological saline and thoroughly mixed with CMC-Na. Blood samples (~0.4 mL) from these rats were collected in heparinized tubes at 0, 0.083, 0.167, 0.25, 0.5, 0.75, 1, 2, 3, 4, 6, 8, and 12 h following i.v. injection or at 0.167, 0.333, 0.5, 0.75, 1,1.5, 2, 4, 6, 8, 12, and 24 h following oral administration. Blood samples were spun for 5 min at 1,500 × g, after which plasma was collected and stored at -20°C prior to analysis. Plasma IPA concentrations were determined using the calibration curve established above based on peak area ratios from individual injection samples. The mean residence time (MRT0-t), area under the blood concentration-time curve (AUC0-∞, AUC0-t), body clearance (CL/F), and elimination half-life (T1/2) were quantified with the DAS 3.2.6 program (Chinese Pharmacology Society) via a noncompartmental approach. Concentration-time curves were used to establish maximum concentration (Cmax) and time to maximum concentration (Tmax) values. Data are given as means ± standard deviation (S.D.). Absolute bioavailability (F %) was determined as follows: F% = AUC0 − ∞(p.o.) dose (i.v.)/AUC0 − ∞(i.v.) dose (p.o.) × 100%.

[3] = male, Sprague-Dawley, plasma, iv, i.v. 5 mg/kg
[4] = male, Sprague-Dawley, plasma, po, p.o. 50 mg/kg
[5] = male, Sprague-Dawley, plasma, po, p.o. 100 mg/kg
[6] = male, Sprague-Dawley, plasma, po, p.o. 200 mg/kg

stability in rat plasma (in words) ([1]; 3 rounds of freeze-thawing): remained stable
stability in rat plasma (in words) ([1]; 3 h room temperature incubation): remained stable
stability in rat plasma (in words) ([1]; 30 days of storage at -20°C): remained stable
Postpreparative, Measured ([1]; spiked 10 ng·mL^−1, 24 h room temperature autosampler): 9.56 ± 0.88 ng/mL
Postpreparative, Measured ([1]; spiked 400 ng·mL^−1, 24 h room temperature autosampler): 371.2 ± 1.44 ng/mL
Postpreparative, Measured ([1]; spiked 2000 ng·mL^−1, 24 h room temperature autosampler): 2012 ± 0.12 ng/mL
Long-term, Measured ([1]; spiked 10 ng·mL^−1, 30 days at -20°C): 10.79 ± 1.46 ng/mL
Short-term, Measured ([1]; spiked 10 ng·mL^−1, room temperature): 9.65 ± 0.07 ng/mL
Three freeze-thaw, Measured ([1]; spiked 10 ng·mL^−1, three cycles -20°C to 20°C): 10.27 ± 0.56 ng/mL
Long-term, Measured ([1]; spiked 400 ng·mL^−1, 30 days at -20°C): 363.5 ± 1.82 ng/mL
Short-term, Measured ([1]; spiked 400 ng·mL^−1, room temperature): 407.0 ± 0.34 ng/mL
Three freeze-thaw, Measured ([1]; spiked 400 ng·mL^−1, three cycles -20°C to 20°C): 421.8 ± 1.08 ng/mL
Long-term, Measured ([1]; spiked 2000 ng·mL^−1, 30 days at -20°C): 1908.3 ± 0.92 ng/mL
Short-term, Measured ([1]; spiked 2000 ng·mL^−1, room temperature): 1840 ± 1.6 ng/mL
Three freeze-thaw, Measured ([1]; spiked 2000 ng·mL^−1, three cycles -20°C to 20°C): 1967 ± 0.34 ng/mL
postpreparation stability (in words) ([1]; room temperature for 24 h in the autosampler): remained stable
AUC(0-inf) [2, 3]: 818 ± 66.2 ng·h/mL
MRT [2, 3]: 1.4 ± 0.4 h
half-life [2, 3]: 6.6 ± 5.9 h
AUC(0-t) [2, 3]: 745 ± 140 ng·h/mL
bioavailability ([2]; male, Sprague-Dawley, plasma, p.o. 50 mg/kg vs i.v. 5 mg/kg): 11.9%
bioavailability ([2]; male, Sprague-Dawley, plasma, p.o. 100 mg/kg vs i.v. 5 mg/kg): 17.5%
AUC(0-inf) [2, 4]: 923 ± 614 ng·h/mL
MRT [2, 4]: 9.3 ± 1.3 h
half-life [2, 4]: 10.4 ± 9.8 h
AUC(0-t) [2, 4]: 887 ± 636 ng·h/mL
CL/F ([2]; male, Sprague-Dawley, plasma, po, p.o. 50 mg/kg, read-out: CL/F (converted)): 1170 mL/min/kg
Tmax [2, 4]: 6.4 ± 2.6 h
AUC(0-inf) [2, 5]: 2640 ± 1640 ng·h/mL
MRT [2, 5]: 7.6 ± 1.3 h
half-life [2, 5]: 5.5 ± 2.3 h
AUC(0-t) [2, 5]: 2600 ± 1630 ng·h/mL
CL/F ([2]; male, Sprague-Dawley, plasma, po, p.o. 100 mg/kg, read-out: CL/F (converted)): 983 mL/min/kg
Tmax [2, 5]: 6 ± 1.4 h
AUC(0-inf) [2, 6]: 3190 ± 1720 ng·h/mL
MRT [2, 6]: 7.9 ± 0.5 h
half-life [2, 6]: 3.6 ± 1 h
AUC(0-t) [2, 6]: 3180 ± 1720 ng·h/mL
CL/F ([2]; male, Sprague-Dawley, plasma, po, p.o. 200 mg/kg, read-out: CL/F (converted)): 1330 mL/min/kg
Tmax [2, 6]: 8.8 ± 1.1 h
C max1 ([2]; i.v. 5 mg/kg): 1740.1 ± 456.0 ng/mL
C max2 ([2]; p.o. 50 mg/kg): 61.6 ± 46.2 ng/mL
C max1 ([2]; p.o. 50 mg/kg): 83.7 ± 32.9 ng/mL
C max2 ([2]; p.o. 100 mg/kg): 284.9 ± 183.4 ng/mL
C max1 ([2]; p.o. 100 mg/kg): 296.4 ± 75.1 ng/mL
C max2 ([2]; p.o. 200 mg/kg): 286.9 ± 217.2 ng/mL
C max1 ([2]; p.o. 200 mg/kg): 246.23 ± 94.4 ng/mL
CL/F ([2]; i.v. 5 mg/kg): 6.1 ± 0.5 L/h
T max1 ([2]; i.v. 5 mg/kg): 0 ± 0 h
T max1 ([2]; p.o. 50 mg/kg): 0.9 ± 0.1 h
T max1 ([2]; p.o. 100 mg/kg): 0.6 ± 0.3 h
T max1 ([2]; p.o. 200 mg/kg): 0.65 ± 0.1 h
Structure (SMILES): C=C[C@@]1(C)CC[C@H]2C(=CC[C@@H]3[C@]2(C)CCC[C@@]3(C)C(=O)O)C1 [IPA, isopimaric acid]

Reference: paper PMC8536414, “The LC-MS/MS-Based Measurement of Isopimaric Acid in Rat Plasma and Application of Pharmacokinetics” (BioMed Research International, 2021)
